Experimental data: US8097733B2, “Pyrazole derivatives as 5-LO-inhibitors” (Pfizer Inc., priority 2007, dated 2012)

Key:
[1] = target: T1, recombinant human 5-LOX (Homo sapiens, UniProt P09917); test: Fluorescence Intensity 5-LOX Enzyme Assay; type: biochemical; conditions: crude lysate of recombinant human 5-LOX; highest inhibitor concentration tested typically 25 μM
T1 sequence (P09917 1-674): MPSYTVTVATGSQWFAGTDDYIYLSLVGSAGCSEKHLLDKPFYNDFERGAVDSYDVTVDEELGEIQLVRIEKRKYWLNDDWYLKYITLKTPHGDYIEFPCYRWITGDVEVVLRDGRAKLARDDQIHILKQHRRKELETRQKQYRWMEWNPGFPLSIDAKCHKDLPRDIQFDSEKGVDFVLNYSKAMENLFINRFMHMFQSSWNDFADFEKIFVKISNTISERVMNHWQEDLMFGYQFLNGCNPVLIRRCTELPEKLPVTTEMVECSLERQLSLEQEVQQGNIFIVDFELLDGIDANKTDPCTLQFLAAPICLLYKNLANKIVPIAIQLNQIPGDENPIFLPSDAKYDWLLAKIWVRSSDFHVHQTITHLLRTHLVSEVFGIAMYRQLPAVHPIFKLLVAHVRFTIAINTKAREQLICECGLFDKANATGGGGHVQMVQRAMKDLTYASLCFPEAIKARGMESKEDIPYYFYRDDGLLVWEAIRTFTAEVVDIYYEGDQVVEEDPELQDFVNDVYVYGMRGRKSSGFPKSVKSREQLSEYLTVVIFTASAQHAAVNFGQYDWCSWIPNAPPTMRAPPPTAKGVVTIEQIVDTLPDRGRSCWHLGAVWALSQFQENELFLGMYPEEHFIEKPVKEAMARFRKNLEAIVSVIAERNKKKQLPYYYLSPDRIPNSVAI
Summary of the method: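 Crude lysate enzyme with H2DCFDA 10 μM (5 min dye pre-incubation), inhibitor pre-incubated 10 min; reaction started with 3 μM arachidonic acid plus 10 μM ATP in Tris pH 7.5, CaCl2, EDTA, 20 min at room temperature, acetonitrile stop. Fluorescein fluorescence; 7-point 4-parameter IC50, top 25 μM, 2.5% DMSO.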

[2] = test system: human whole blood (leukotriene and prostaglandin levels); test: Eicosanoid production from human whole blood; type: cell-based; conditions: human whole blood stimulated with calcium ionophore A23187 and arachidonic acid; ELISA
Summary of the method: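 Pooled heparinized whole blood from healthy or asthmatic donors was preincubated with compound for 10 min at room temperature, with 2.5% DMSO final. It was stimulated with calcium ionophore A23187 plus arachidonic acid (30 μM) in 60% ethanol for 15 min at 37 °C. Plasma leukotrienes and prostaglandins were measured by ELISA.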

[3] = test system: eicosanoid production in the rat air pouch; test: Carrageenan-induced eicosanoid production in the rat air pouch; type: in vivo; conditions: po, male Lewis rats, 3 mpk by gavage 1 hour prior to carrageenan
Procedure: Carrageenan-Induced Eicosanoid Production in the Rat Air Pouch:
Male Lewis rats (175-200 g), Charles River Laboratories, Wilmington, Mass.) were used in the study. Air pouches were produced by subcutaneous injection of 20 ml of sterile air into the intrascapular area of the back. Pouches were allowed to develop for 1 day. Animals (6 per group) were fasted with free access to water for 16 to 24 hours prior to drug administration. Drugs or vehicle were administered by gavage 1 hour prior to injection of 2 ml of a 1% suspension of carrageenan (FMC BioPolymer, Philadelphia, Pa., Cat. # GP209-NF) dissolved in saline into the pouch. At 3 hours post-carrageenan injection, 1 ml of 50 μg/ml calcium ionophore in saline (A23187, Sigma Chemical Co, St. Louis, M, Cat. #C-7522) was injected into the pouch and the pouch fluid collected 10 minutes later by lavage. The fluid was centrifuged at 3500 rpm for 10 minutes at 4° C., and the supernatants were collected for analysis. Leukotriene and prostaglandin levels were quantitated by ELISA according to the manufacturer's directions (Cayman Chemical Company, Ann Arbor, Mi).

Structure (SMILES)	IC50 [1] [nM]	IC50 [2] [nM]	inhibition at 3 mg/kg [3] [%]
Cc1nccn1-c1ccc(Sc2cccc(C3(C(N)=O)CCOCC3)c2)cc1 [(d), 4-(3-(4-(2-methyl-1H-imidazol-1-yl)phenylthio)phenyl)-tetrahydro-2H-pyran-4-carboxamide, reference compound]	877	275	73.1
C[C@H]1C[C@@](C(N)=O)(c2cccc(Sc3ccc(C(=O)c4ccnn4C)cc3)c2)CCO1 [Example 39, (2S,4R)-2-methyl-4-(3-(4-(1-methyl-1H-pyrazole-5-carbonyl)phenylthio)phenyl)-tetrahydro-2H-pyran-4-carboxamide]	23.8	407	66
Cn1nccc1C(=O)c1ccc(Sc2cccc(C3(C(N)=O)CCOCC3)c2)cc1 [Example 34, 4-[3-({4-[(1-methyl-1H-pyrazol-5-yl)carbonyl]phenyl}thio)phenyl]tetrahydro-2H-pyran-4-carboxamide]	40.2	549	99.5
C[C@H]1C[C@@](C#N)(c2cc(F)cc(Sc3ccc(-c4ccnn4C)c(F)c3)c2)CCO1 [32(1), (2S,4R)-4-(3-fluoro-5-(3-fluoro-4-(1-methyl-1H-pyrazol-5-yl)phenylthio)phenyl)-2-methyl-tetrahydro-2H-pyran-4-carbonitrile]	151	107	93
Cn1ncc(Cl)c1-c1ccc(Sc2cccc(C3(C(N)=O)CCOCC3)c2)cc1F [Example 56, 4-(3-{[4-(4-chloro-1-methyl-1H-pyrazol-5-yl)-3-fluorophenyl]thio}phenyl)tetrahydro-2H-pyran-4-carboxamide]	43.2	472	62
CNC(=O)C1(c2cccc(Sc3ccc(-c4ccnn4C)cc3)c2)CCOCC1 [Example 10, N-Methyl-4-(3-{[4-(1-methyl-1H-pyrazol-5-yl)phenyl]thio}phenyl)tetrahydro-2H-pyran-4-carboxamide]	287	294	5
C[C@H]1C[C@@](C(N)=O)(c2ccc(F)c(Sc3ccc(-c4ccnn4C)cc3)c2)CCO1 [Example 23, (2S,4R)-4-(4-fluoro-3-(4-(1-methyl-1H-pyrazol-5-yl)phenylthio)phenyl)-2-methyl-tetrahydro-2H-pyran-4-carboxamide]	39.8	314	76
Cn1nccc1Cc1ccc(Sc2cccc(C3(C(N)=O)CCOCC3)c2)cc1F [Example 33, 4-{3-[3-Fluoro-4-(2-methyl-2H-pyrazol-3-ylmethyl)phenylsulfanyl]-phenyl}-tetrahydro-pyran-4-carboxylic acid amide]	110	492	76
C[C@H]1C[C@@](C#N)(c2cccc(Sc3ccc(C(=O)c4ccnn4C)cc3)c2F)CCO1 [Example 53, (2S,4R)+(2-fluoro-3-(4-(1-methyl-1H-pyrazole-5-carbonyl)phenylthio)phenyl)-2-methyl-tetrahydro-2H-pyran-4-carbonitrile]	65.7	350	94
Cn1ncc(Cl)c1-c1ccc(Sc2cccc(C3(C(N)=O)CCOCC3)c2)cc1 [Example 57, 4-(3-{[4-(4-chloro-1-methyl-1H-pyrazol-5-yl)phenyl]thio}phenyl)tetrahydro-2H-pyran-4-carboxamide]	85.1	514	62
Cn1nccc1C(=O)c1ccc(Sc2cccc(C3(C(N)=O)CCOCC3)c2)cc1F [Example 58, 4-[3-({3-fluoro-4-[(1-methyl-1H-pyrazol-5-yl)carbonyl]phenyl}thio)phenyl]tetrahydro-2H-pyran-4-carboxamide]	156	1140	0
C[C@H]1C[C@@](C#N)(c2cccc(Sc3ccc(-c4ccnn4C)cc3)c2F)CCO1 [29(2), (2S,4R)-4-(2-fluoro-3-(4-(1-methyl-1H-pyrazol-5-yl)phenylthio)phenyl)-2-methyl-tetrahydro-2H-Pyran-4-carbonitrile]	30	62.5	100
